Patent publication US20240158439A1, “INHIBITORS OF ANTIGEN PRESENTATION BY MHC CLASS II HLA-DRB1*15:01 MOLECULES WITH ENHANCED METABOLIC STABILITY” (Provid Pharmaceuticals Inc., priority 2021, published 2024)
*1 amine or outer side, *2 acyl side, *3 side chain or, on linkers, in order; H or OH if unused. Where a SMILES comes first, the peptide text is derived from it. Where no end group is shown, it is not given here. [ ]: non-standard residue; d: D form. The star is where a group is joined. ξ: configuration not given here. ξGly(4-Pip(1-amidino)) = N=C(N)N1CCC(C(N)C(=O)O)CC1; Ala(indol-4-yl) = N[C@@H](Cc1cccc2[nH]ccc12)C(=O)O; Phe(3,4-Cl2) = N[C@@H](Cc1ccc(Cl)c(Cl)c1)C(=O)O; X4 = O=C([C@H](Cc1cccc2[nH]ncc12)N[*:1])[*:2]; Trp(1-Me) = Cn1cc(C[C@H](N)C(=O)O)c2ccccc21; X1 = O=C([C@H](Cc1ccc2ccccc2n1)N[*:1])[*:2]; Ala(4-thiazolyl) = N[C@@H](Cc1cscn1)C(=O)O; X3 = Nc1nc(C[C@H](N[*:1])C(=O)[*:2])c[nH]1; Oic = O=C(O)[C@@H]1C[C@@H]2CCCC[C@@H]2N1; Phe(4-F) = N[C@@H](Cc1ccc(F)cc1)C(=O)O; Dab(CONH2) = NC(=O)NCC[C@H](N)C(=O)O; Bta = N[C@@H](Cc1csc2ccccc12)C(=O)O; Gly(cPent) = N[C@H](C(=O)O)C1CCCC1; Igl = N[C@H](C(=O)O)C1Cc2ccccc2C1; hCit = NC(=O)NCCCC[C@H](N)C(=O)O; Tic = O=C(O)[C@@H]1Cc2ccccc2CN1; Cit = NC(=O)NCCC[C@H](N)C(=O)O; Agb = N=C(N)NCC[C@H](N)C(=O)O; Chg = N[C@H](C(=O)O)C1CCCCC1; NHPhenethyl = c1ccc(CCN*)cc1; Tle = CC(C)(C)[C@H](N)C(=O)O; Morpholide = C1CN(*)CCO1; Nva = CCC[C@H](N)C(=O)O; βAla = NCCC(=O)O; Sar = CNCC(=O)O

What follows are compounds tested against T1, HLA-DRB1*15:01 (Homo sapiens, UniProt P01903+P01911) (assay: HLA II binding assay (competitive, biotinylated reference peptide)). Settings: N-methyl amide vs primary amide.
T1 construct: endogenous in cells; host or cells: EBV homozygous cell lines (human)

loss in binding affinity relative to PV-267 [fold] | Compound
8 | CNC(=O)[C@H](Cc1ccccc1)NC(=O)[C@@H]1Cc2ccccc2CN1C(=O)[C@H](CCCNC(=N)N)NC(=O)[C@@H](NC(=O)[C@@H](NC(C)=O)C(C)C)C1CCCCC1 [PV-625] (Ac-V[Chg]R[Tic]F-NHMe)

Same assay, conditions: Table 2, DRB1*15:01 binding; unit inferred, nM; read-out: Avg IC50

IC50 [nM] | Compound
2 | CC(C)[C@H](NC(=O)CCN)C(=O)N[C@H](C(=O)N[C@@H](CCCNC(=N)N)C(=O)N1Cc2ccccc2C[C@H]1C(=O)N[C@@H](Cc1ccccc1)C(N)=O)C1CCCCC1 [PV-638] (H-[βAla]V[Chg]R[Tic]F-NH2)
2.3 | CC(=O)N[C@H](C(=O)N[C@H](C(=O)N[C@@H](CCCNC(=N)N)C(=O)N1Cc2ccccc2C[C@H]1C(=O)N[C@@H](Cc1ccc(F)cc1)C(N)=O)C1CCCCC1)C(C)C [PV-574] (Ac-V[Chg]R[Tic][Phe(4-F)]-NH2)
29 | CC(=O)N[C@H](C(=O)N[C@H](C(=O)N[C@@H](CCCNC(=N)N)C(=O)N1Cc2ccccc2C[C@H]1C(=O)N[C@@H](Cc1ccccc1)C(N)=O)C1CCCCC1)[C@@H](C)O [PV-526] (Ac-T[Chg]R[Tic]F-NH2)
28 | CC(=O)N[C@H](C(=O)N[C@H](C(=O)N[C@@H](Cc1c[nH]cn1)C(=O)N1Cc2ccccc2C[C@H]1C(=O)N[C@@H](Cc1ccccc1)C(N)=O)C1CCCCC1)C(C)C [PV-580] (Ac-V[Chg]H[Tic]F-NH2)
3450 | CC(=O)N[C@H](C(=O)N[C@H](C(=O)N[C@@H](CCCNC(=N)N)C(=O)N1Cc2ccccc2C[C@H]1C(=O)N[C@@H](Cc1ccc2ccccc2n1)C(N)=O)C1CCCCC1)C(C)C [PV-617, reference compound] (Ac-V[Chg]R[Tic][X1]-NH2)
4 | CC(=O)N[C@H](C(=O)N[C@H](C(=O)N[C@@H](CCNC(N)=O)C(=O)N1Cc2ccccc2C[C@H]1C(=O)N[C@@H](Cc1ccccc1)C(N)=O)C1CCCCC1)C(C)C [PV-642] (Ac-V[Chg][Dab(CONH2)][Tic]F-NH2)
1 | CC(C)[C@H](NC(=O)CN)C(=O)N[C@H](C(=O)N[C@@H](CCCNC(=N)N)C(=O)N1Cc2ccccc2C[C@H]1C(=O)N[C@@H](Cc1ccccc1)C(N)=O)C1CCCCC1 [PV-633] (H-GV[Chg]R[Tic]F-NH2)
3 | CNCC(=O)N[C@H](C(=O)N[C@H](C(=O)N[C@@H](CCCNC(=N)N)C(=O)N1Cc2ccccc2C[C@H]1C(=O)N[C@@H](Cc1ccccc1)C(N)=O)C1CCCCC1)C(C)C [PV-636] (H-[Sar]V[Chg]R[Tic]F-NH2)
17 | CC(C)[C@H](NC(=O)CCN)C(=O)N[C@H](C(=O)N[C@@H](Cc1cscn1)C(=O)N1Cc2ccccc2C[C@H]1C(=O)N[C@@H](Cc1ccccc1)C(N)=O)C1CCCCC1 [PV-833] (H-[βAla]V[Chg][Ala(4-thiazolyl)][Tic]F-NH2)
5000 | CC(=O)N[C@H](C(=O)N[C@@H](CCCNC(=N)N)C(=O)N[C@@H](Cc1ccccc1)C(=O)N[C@@H](Cc1ccccc1)C(N)=O)C(C)C [PV-119, reference compound] (Ac-VRFF-NH2)
2.1 | CC(=O)N[C@H](C(=O)N[C@H](C(=O)N[C@@H](CCCNC(=N)N)C(=O)N1Cc2ccccc2C[C@H]1C(=O)N[C@@H](Cc1csc2ccccc12)C(N)=O)C1CCCCC1)C(C)C [PV-478] (Ac-V[Chg]R[Tic][Bta]-NH2)
25 | CC(=O)N[C@H](C(=O)N[C@H](C(=O)N[C@@H](Cc1c[nH]c(N)n1)C(=O)N1Cc2ccccc2C[C@H]1C(=O)N[C@@H](Cc1ccccc1)C(N)=O)C1CCCCC1)C(C)C [PV-839] (Ac-V[Chg][X3][Tic]F-NH2)
464 | CC(=O)N[C@H](C(=O)N[C@H](C(=O)N[C@@H](CCCNC(=N)N)C(=O)N1Cc2ccccc2C[C@H]1C(=O)NCCc1ccccc1)C1CCCCC1)C(C)C [PV-708, reference compound] (Ac-V[Chg]R[Tic]-NHPhenethyl)
2 | CC(C)[C@H](NC(=O)CCN)C(=O)N[C@H](C(=O)N[C@@H](CCCNC(N)=O)C(=O)N1Cc2ccccc2C[C@H]1C(=O)N[C@@H](Cc1ccccc1)C(N)=O)C1CCCCC1 [PV-664] (H-[βAla]V[Chg][Cit][Tic]F-NH2)
6.7 | CC(=O)N[C@H](C(=O)N[C@H](C(=O)N[C@@H](CCCNC(=N)N)C(=O)N1Cc2ccccc2C[C@H]1C(=O)N[C@@H](Cc1ccccc1)C(N)=O)C1CCCC1)C(C)C [PV-573] (Ac-V[Gly(cPent)]R[Tic]F-NH2)
30.1 | CC(=O)N[C@H](C(=O)N[C@@H](CCCNC(=N)N)C(=O)N1Cc2ccccc2C[C@H]1C(=O)N[C@@H](Cc1cccc2[nH]ccc12)C(N)=O)C1CCCCC1 [PV-476] (Ac-[Chg]R[Tic][Ala(indol-4-yl)]-NH2)
1.5 | CC(=O)N[C@H](C(=O)N[C@H](C(=O)N[C@@H](CCCNC(=N)N)C(=O)N1Cc2ccccc2C[C@H]1C(=O)N[C@@H](Cc1cccc2[nH]ccc12)C(N)=O)C1CCCCC1)C(C)C [PV-493] (Ac-V[Chg]R[Tic][Ala(indol-4-yl)]-NH2)
7 | CC(=O)N[C@H](C(=O)N[C@H](C(=O)N[C@@H](CCCCNC(N)=O)C(=O)N1Cc2ccccc2C[C@H]1C(=O)N[C@@H](Cc1ccccc1)C(N)=O)C1CCCCC1)C(C)C [PV-640] (Ac-V[Chg][hCit][Tic]F-NH2)
4 | CNCC(=O)N[C@H](C(=O)N[C@H](C(=O)N[C@@H](CCCNC(N)=O)C(=O)N1Cc2ccccc2C[C@H]1C(=O)N[C@@H](Cc1ccccc1)C(N)=O)C1CCCCC1)C(C)C [PV-662] (H-[Sar]V[Chg][Cit][Tic]F-NH2)

IC50 [nM] | Compound
1.3 | CC(=O)N[C@H](C(=O)N[C@H](C(=O)N[C@@H](CCCNC(=N)N)C(=O)N1Cc2ccccc2C[C@H]1C(=O)N[C@@H](Cc1c[nH]c2ccccc12)C(N)=O)C1CCCCC1)C(C)C [PV-579] (Ac-V[Chg]R[Tic]W-NH2)
150 | CC(C)[C@H](NC(=O)CCN)C(=O)N[C@H](C(=O)N[C@@H](Cc1ccccc1)C(=O)N[C@@H](Cc1ccccc1)C(=O)N[C@@H](Cc1ccccc1)C(N)=O)C1CCCCC1 [PV-782] (H-[βAla]V[Chg]FFF-NH2)
474 | CC(=O)N[C@H](C(=O)N[C@H](C(=O)N[C@@H](CCCNC(=N)N)C(=O)N1[C@H](C(=O)N[C@@H](Cc2ccccc2)C(N)=O)C[C@@H]2CCCC[C@@H]21)C1CCCCC1)C(C)C [PV-589, reference compound] (Ac-V[Chg]R[Oic]F-NH2)
4.1 | CCC[C@H](NC(C)=O)C(=O)N[C@H](C(=O)N[C@@H](CCCNC(=N)N)C(=O)N1Cc2ccccc2C[C@H]1C(=O)N[C@@H](Cc1ccccc1)C(N)=O)C1CCCCC1 [PV-591] (Ac-[Nva][Chg]R[Tic]F-NH2)
5.3 | CC(=O)N[C@H](C(=O)N[C@H](C(=O)N[C@@H](CCNC(=N)N)C(=O)N1Cc2ccccc2C[C@H]1C(=O)N[C@@H](Cc1ccccc1)C(N)=O)C1CCCCC1)C(C)C [PV-562] (Ac-V[Chg][Agb][Tic]F-NH2)
48 | CC(=O)N[C@H](C(=O)N[C@@H](CCCNC(=N)N)C(=O)N1Cc2ccccc2C[C@H]1C(=O)N[C@@H](Cc1c[nH]c2ccccc12)C(N)=O)C1CCCCC1 [PV-507] (Ac-[Chg]R[Tic]W-NH2)
161 | CC(=O)N[C@H](C(=O)N[C@H](C(=O)N[C@@H](CCCNC(=N)N)C(=O)N1Cc2ccccc2C[C@H]1C(=O)N[C@@H](Cc1ccccc1)C(=O)O)C1Cc2ccccc2C1)C(C)C [PV-624] (Ac-V[Igl]R[Tic]F-OH)
6 | CC(=O)N[C@H](C(=O)N[C@H](C(=O)NC(C(=O)N1Cc2ccccc2C[C@H]1C(=O)N[C@@H](Cc1ccccc1)C(N)=O)C1CCN(C(=N)N)CC1)C1CCCCC1)C(C)C (some centres unmarked) [PV-810] (Ac-V[Chg][ξGly(4-Pip(1-amidino))][Tic]F-NH2)
43 | CC(=O)N[C@H](C(=O)N[C@H](C(=O)N[C@@H](C)C(=O)N1Cc2ccccc2C[C@H]1C(=O)N[C@@H](Cc1ccccc1)C(N)=O)C1CCCCC1)C(C)C [PV-560] (Ac-V[Chg]A[Tic]F-NH2)
2370 | Ac-VVRFF-NH2 [PV-73, reference compound]
213 | CC(=O)N[C@H](C(=O)N[C@@H](CCCNC(=N)N)C(=O)N1Cc2ccccc2C[C@H]1C(=O)N[C@@H](Cc1cn(C)c2ccccc12)C(N)=O)C1CCCCC1 [PV-508] (Ac-[Chg]R[Tic][Trp(1-Me)]-NH2)
14 | CC(=O)N[C@H](C(=O)N[C@H](C(=O)N[C@@H](CCCNC(=N)N)C(=O)N1Cc2ccccc2C[C@H]1C(=O)N[C@@H](Cc1ccccc1)C(N)=O)C1Cc2ccccc2C1)C(C)C [PV-594] (Ac-V[Igl]R[Tic]F-NH2)
4.1 | CC(=O)N[C@H](C(=O)N[C@H](C(=O)N[C@@H](CCCNC(=N)N)C(=O)N1Cc2ccccc2C[C@H]1C(=O)N[C@@H](Cc1ccc(Cl)c(Cl)c1)C(N)=O)C1CCCCC1)C(C)C [PV-593] (Ac-V[Chg]R[Tic][Phe(3,4-Cl2)]-NH2)
17 | CNC(=O)[C@H](Cc1ccccc1)NC(=O)[C@@H]1Cc2ccccc2CN1C(=O)[C@H](CCCNC(=N)N)NC(=O)[C@@H](NC(=O)[C@@H](NC(C)=O)C(C)C)C1Cc2ccccc2C1 [PV-629] (Ac-V[Igl]R[Tic]F-NHMe)
4.1 | CO[C@H](C)[C@H](NC(C)=O)C(=O)N[C@H](C(=O)N[C@@H](CCCNC(=N)N)C(=O)N1Cc2ccccc2C[C@H]1C(=O)N[C@@H](Cc1ccccc1)C(N)=O)C1CCCCC1 [PV-592] (Ac-T(Me)[Chg]R[Tic]F-NH2)
5 | CC(C)[C@H](NC(=O)CN)C(=O)N[C@H](C(=O)N[C@@H](CCCNC(N)=O)C(=O)N1Cc2ccccc2C[C@H]1C(=O)N[C@@H](Cc1ccccc1)C(N)=O)C1CCCCC1 [PV-661] (H-GV[Chg][Cit][Tic]F-NH2)
3 | CC(=O)N[C@H](C(=O)N[C@H](C(=O)N[C@@H](CCCNC(=N)N)C(=O)N1Cc2ccccc2C[C@H]1C(=O)N[C@@H](Cc1cccc2[nH]ncc12)C(N)=O)C1CCCCC1)C(C)C [PV-676] (Ac-V[Chg]R[Tic][X4]-NH2)
1.3 | CC(=O)N[C@H](C(=O)N[C@H](C(=O)N[C@@H](CCCNC(=N)N)C(=O)N1Cc2ccccc2C[C@H]1C(=O)N[C@@H](Cc1ccccc1)C(N)=O)C1CCCCC1)C(C)(C)C [PV-590] (Ac-[Tle][Chg]R[Tic]F-NH2)

Same assay, conditions: read-out: binding IC50

IC50 [nM] | Compound
16 | CNC(=O)[C@H](Cc1ccccc1)NC(=O)[C@@H]1Cc2ccccc2CN1C(=O)[C@H](CCCNC(=N)N)NC(=O)[C@@H](NC(=O)[C@@H](NC(C)=O)C(C)C)C1CCCCC1 [PV-625] (Ac-V[Chg]R[Tic]F-NHMe)
33 | CC(=O)N[C@H](C(=O)N[C@H](C(=O)N[C@@H](CCCNC(=N)N)C(=O)N1Cc2ccccc2C[C@H]1C(=O)N[C@@H](Cc1ccccc1)C(=O)N1CCOCC1)C1CCCCC1)C(C)C [PV-630] (Ac-V[Chg]R[Tic]F-Morpholide)

Same assay, conditions: reference peptide, DRB1*1501; read-out: IC50

IC50 [nM] | Compound
14 | EAEQLRRAYLDGTGVE [A3 152-166, reference compound]
